Experiments:
zebrafish larvae = experiment: Measurement of glucose uptake in zebrafish (2-NBDG); assay type: in vivo; set-up: 2-NBDG signal in lysed larvae (fluorescent plate reader): dose or concentration left out as unconfirmed
Method: FIG. 12. […] (a) Schematic of our approach to measure the effect of ENOblock treatment on […] in zebrafish.
At 72 hpf, larvae were placed into a 96-well plate (6 eggs/well in 200 μL E3 water supplemented with 0.2 mM 2-phenylthiourea; Sigma). Drug of interest was added for […]. The solution was then replaced with E3 water supplemented with 600 μM 2-NBDG and incubated for 3 h. The larva were washed with E3 water and anesthetized with 0.02% tricaine-supplemented E3 water. One larva was then placed on a chamber slide, containing 3% methylcellulose in E3 water, for fluorescent microscopy (Leica DM2500 microscope equipped with a DFC425 C digital camera). Images were captured at 50× magnification. The remaining 5 larvae where lysed with 120 μL of CelLytic M solution (Sigma-Aldrich) and sonication (4° C., 10″/5″ pulse, 10 min). Lysed larvae were centrifuged at 10000 rpm for 10 min. 100 μL of the supernatant was transferred to a 96-well plate and fluorescence was measured with a fluorescent microplate reader (SpectraMAX Gemini XS, Molecular Devices; λex=466 nm […]).

macrophages = experiment: Foam cell formation from macrophages treated with oleic acid; assay type: cell-based; conditions: 10 μM

NCCOCCOCCNC(=O)Cc1ccc(Nc2nc(NCc3ccc(F)cc3)nc(NCC3CCCCC3)n2)cc1 [ENOblock]
glucose uptake in larvae (2-NBDG fluorescence microscopy) (zebrafish larvae; 10 μM, 4 h): increased glucose uptake in the zebrafish larvae | 2-NBDG fluorescence signal intensity in the eye (zebrafish larvae; 72 hpf larvae, 10 μM, 4 h, vs 2-NBDG alone): induced significantly greater fluorescent tagged glucose uptake in the zebrafish eye | 2-NBDG signal in lysed larvae (fluorescent plate reader) (zebrafish larvae; 72 hpf zebrafish): induced glucose uptake | foam cell formation (Oil Red O staining, microscopy) (macrophages): inhibited foam cell formation | foam cell formation (count of cells showing lipid accumulation) (macrophages): inhibited foam cell formation

Source: patent US9364480B2, “Pharmaceutical composition for preventing or treating cancer, containing enoblock as active ingredient” (GWANGJU INSTITUTE OF SCIENCE AND TECHNOLOGY, priority 2012, dated 2016)
